Reference: ChEMBL document CHEMBL1909046, “DrugMatrix in vitro pharmacology data”

Columns and labels:
[1] = biological target: T1, Alpha-1D adrenergic receptor (Homo sapiens, UniProt P25100); type: cell membranes, HEK293, Membrane; settings: for Ki: read-out: Ki; on all read-outs here: in other assays of this panel Not Active means under 50% inhibition at 10 µM
T1 sequence (P25100 whole entry): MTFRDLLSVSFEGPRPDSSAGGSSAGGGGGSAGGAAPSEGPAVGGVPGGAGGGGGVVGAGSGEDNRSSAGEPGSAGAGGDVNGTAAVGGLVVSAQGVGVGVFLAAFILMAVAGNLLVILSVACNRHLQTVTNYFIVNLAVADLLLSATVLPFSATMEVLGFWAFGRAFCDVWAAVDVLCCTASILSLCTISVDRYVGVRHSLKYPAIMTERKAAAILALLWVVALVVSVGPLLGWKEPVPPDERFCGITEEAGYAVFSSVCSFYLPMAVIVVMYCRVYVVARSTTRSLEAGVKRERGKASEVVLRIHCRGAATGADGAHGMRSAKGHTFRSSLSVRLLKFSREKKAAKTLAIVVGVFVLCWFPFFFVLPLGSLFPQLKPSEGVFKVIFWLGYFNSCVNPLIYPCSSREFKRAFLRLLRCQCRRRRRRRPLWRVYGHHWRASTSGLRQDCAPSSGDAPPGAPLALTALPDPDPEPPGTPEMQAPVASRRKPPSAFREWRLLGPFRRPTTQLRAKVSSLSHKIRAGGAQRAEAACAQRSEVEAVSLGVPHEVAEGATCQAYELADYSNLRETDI

[2] = biological target: T2, D(4) dopamine receptor (Homo sapiens, UniProt P21917); assay: DRUGMATRIX: Dopamine D4.2 radioligand binding (ligand: [3H] Spiperone); type: cell membranes, CHO-K1, Membrane; settings: Not Active = under 50% inhibition at 10 µM
T2 sequence (P21917 whole entry): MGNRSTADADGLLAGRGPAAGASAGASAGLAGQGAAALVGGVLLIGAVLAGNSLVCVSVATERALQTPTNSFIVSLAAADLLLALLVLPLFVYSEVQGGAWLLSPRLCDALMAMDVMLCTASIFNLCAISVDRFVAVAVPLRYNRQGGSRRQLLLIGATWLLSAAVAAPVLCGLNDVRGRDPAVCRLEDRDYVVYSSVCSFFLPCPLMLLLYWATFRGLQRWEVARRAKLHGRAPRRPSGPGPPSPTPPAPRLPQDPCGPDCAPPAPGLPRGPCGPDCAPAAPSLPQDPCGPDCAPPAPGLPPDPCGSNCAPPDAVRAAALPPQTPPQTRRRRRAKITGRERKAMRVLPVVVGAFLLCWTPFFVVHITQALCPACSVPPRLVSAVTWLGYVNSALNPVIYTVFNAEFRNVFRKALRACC

[3] = biological target: T3, Cholecystokinin receptor type A (Homo sapiens, UniProt P32238); type: cell membranes, Membrane; settings: 1321-n1; further: in other assays of this panel Not Active means under 50% inhibition at 10 µM
T3 sequence (P32238 whole entry): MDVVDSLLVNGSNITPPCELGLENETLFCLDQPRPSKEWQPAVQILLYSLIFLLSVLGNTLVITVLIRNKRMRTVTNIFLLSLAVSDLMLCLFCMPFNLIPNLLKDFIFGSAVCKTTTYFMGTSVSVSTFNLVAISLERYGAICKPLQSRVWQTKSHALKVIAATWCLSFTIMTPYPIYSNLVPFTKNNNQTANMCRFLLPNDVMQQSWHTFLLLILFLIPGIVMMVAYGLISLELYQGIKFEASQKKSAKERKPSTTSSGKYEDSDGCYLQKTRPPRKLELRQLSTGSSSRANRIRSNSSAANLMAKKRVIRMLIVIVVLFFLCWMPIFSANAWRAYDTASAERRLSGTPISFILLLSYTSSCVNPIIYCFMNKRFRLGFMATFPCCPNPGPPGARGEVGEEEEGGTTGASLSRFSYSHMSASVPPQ

[4] = biological target: T4, Vasoactive intestinal polypeptide receptor 1 (Homo sapiens, UniProt P32241); type: cell membranes, Membrane; settings: ht-29; further: in other assays of this panel Not Active means under 50% inhibition at 10 µM
T4 sequence (P32241 whole entry): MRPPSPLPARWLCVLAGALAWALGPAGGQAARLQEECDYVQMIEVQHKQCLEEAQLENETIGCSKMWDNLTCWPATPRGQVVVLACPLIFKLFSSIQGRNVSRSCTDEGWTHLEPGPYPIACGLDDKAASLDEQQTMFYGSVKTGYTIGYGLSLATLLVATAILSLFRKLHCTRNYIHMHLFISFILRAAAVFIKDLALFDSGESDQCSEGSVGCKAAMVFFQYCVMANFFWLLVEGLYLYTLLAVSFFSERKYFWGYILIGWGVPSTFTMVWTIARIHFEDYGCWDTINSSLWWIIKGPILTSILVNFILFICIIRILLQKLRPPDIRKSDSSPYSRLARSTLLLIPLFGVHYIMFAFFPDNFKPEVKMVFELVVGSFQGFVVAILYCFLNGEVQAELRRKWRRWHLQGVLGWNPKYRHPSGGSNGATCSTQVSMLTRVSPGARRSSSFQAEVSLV

[5] = biological target: Vasopressin V1a receptor (Homo sapiens, UniProt P37288); type: cell membranes, Membrane; settings: hek293; further: in other assays of this panel Not Active means under 50% inhibition at 10 µM
Chain of Vasopressin V1a receptor (P37288 whole entry): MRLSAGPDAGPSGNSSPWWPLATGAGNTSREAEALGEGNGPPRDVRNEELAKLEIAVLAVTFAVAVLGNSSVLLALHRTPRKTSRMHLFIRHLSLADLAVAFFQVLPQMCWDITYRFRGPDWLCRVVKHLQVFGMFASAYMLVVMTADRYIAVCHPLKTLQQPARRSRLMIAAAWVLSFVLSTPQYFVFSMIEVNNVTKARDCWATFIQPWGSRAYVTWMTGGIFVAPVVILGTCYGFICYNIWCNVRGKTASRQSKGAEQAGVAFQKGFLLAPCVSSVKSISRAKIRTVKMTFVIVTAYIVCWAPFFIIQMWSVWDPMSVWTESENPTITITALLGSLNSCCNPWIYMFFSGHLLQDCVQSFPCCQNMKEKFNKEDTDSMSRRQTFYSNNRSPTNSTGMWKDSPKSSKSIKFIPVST

[6] = biological target: T5, Muscarinic acetylcholine receptor M5 (Homo sapiens, UniProt P08912); type: cell membranes, CHO-K1, Membrane; settings: cho-k1; further: in other assays of this panel Not Active means under 50% inhibition at 10 µM
T5 sequence (P08912 whole entry): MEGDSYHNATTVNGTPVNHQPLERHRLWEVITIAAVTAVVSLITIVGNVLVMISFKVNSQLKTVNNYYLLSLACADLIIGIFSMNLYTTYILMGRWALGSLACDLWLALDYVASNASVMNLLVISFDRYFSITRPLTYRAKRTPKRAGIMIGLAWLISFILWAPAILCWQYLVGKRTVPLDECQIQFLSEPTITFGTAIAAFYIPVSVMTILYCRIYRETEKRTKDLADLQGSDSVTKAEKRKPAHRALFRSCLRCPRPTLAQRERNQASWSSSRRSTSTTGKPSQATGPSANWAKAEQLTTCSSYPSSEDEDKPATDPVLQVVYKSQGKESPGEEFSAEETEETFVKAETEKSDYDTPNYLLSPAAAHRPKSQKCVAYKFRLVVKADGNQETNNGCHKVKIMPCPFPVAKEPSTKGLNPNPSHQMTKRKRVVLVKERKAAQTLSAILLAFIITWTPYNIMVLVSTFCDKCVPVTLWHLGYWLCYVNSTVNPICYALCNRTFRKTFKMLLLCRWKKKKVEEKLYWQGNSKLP

SMILES | IC50 ([1]; hek293) | IC50 ([2]; cho-k1) | IC50 [3] | IC50 [4] | IC50 [5] | IC50 [6] | IC50 ([1]; read-out: IC50) | Ki [1] | IC50 ([2]; read-out: IC50) | Ki ([2]; read-out: Ki)
CCCCC(=O)N(Cc1ccc(-c2ccccc2-c2nnn[nH]2)cc1)[C@H](C(=O)O)C(C)C | Not Active | Not Active | Not Active | Not Active | Not Active | Not Active |  |  |  | 
O=C(O)COc1ccc(C(=O)c2cccs2)c(Cl)c1Cl | Not Active | Not Active | Not Active | Not Active | Not Active | Not Active |  |  |  | 
CN1[C@@H]2CC[C@H]1C[C@@H](OC(c1ccccc1)c1ccccc1)C2 [BENZTROPINE] |  | Not Active | Not Active | Not Active | Not Active |  | 52 nM | 26 nM |  | 
C[C@@](Cc1ccc(O)c(O)c1)(NN)C(=O)O.O [CARBIDOPA] | Not Active | Not Active | Not Active | Not Active | Not Active | Not Active |  |  |  | 
CN1CCN(C2=Nc3cc(Cl)ccc3Nc3ccccc32)CC1 [CLOZAPINE] |  |  | Not Active | Not Active | Not Active |  |  |  |  | 
CC(C)NC[C@@H](O)COc1cccc2ccccc12 [DEXPROPRANOLOL] | Not Active | Not Active | Not Active | Not Active | Not Active | Not Active |  |  |  | 
CC(C)NC[C@H](O)COc1cccc2ccccc12 [LEVOPROPRANOLOL] | Not Active | Not Active | Not Active | Not Active | Not Active | Not Active |  |  |  | 
O=C(O)CCCCC1CCSS1 (stereo not drawn) [LIPOIC ACID, ALPHA] | Not Active | Not Active | Not Active | Not Active | Not Active | Not Active |  |  |  | 
CN(C)C(=O)C(CCN1CCC(O)(c2ccc(Cl)cc2)CC1)(c1ccccc1)c1ccccc1 [LOPERAMIDE] | Not Active | Not Active | Not Active | Not Active | Not Active | Not Active |  |  |  | 
Clc1ccc(COC(Cn2ccnc2)c2ccc(Cl)cc2Cl)c(Cl)c1 (stereo unspecified) [MICONAZOLE] |  |  | Not Active | Not Active | Not Active | Not Active | 3050 nM | 1500 nM | 15300 nM | 5350 nM
Oc1ccc2c3c1O[C@H]1[C@@H](O)CC[C@@]4(O)[C@@H](C2)N(CC2CCC2)CC[C@]314 [NALBUPHINE] | Not Active | Not Active | Not Active | Not Active | Not Active | Not Active |  |  |  | 
C[C@]12C=CC(=O)C=C1CC[C@@H]1[C@@H]2C(=O)C[C@@]2(C)[C@H]1CC[C@]2(O)C(=O)CO [PREDNISONE] | Not Active | Not Active | Not Active | Not Active | Not Active | Not Active |  |  |  | 
